# Reference: patent US7005517B2, “Paramagnetic metal-phthalocyanine complex compounds and contrast agent using the same” (priority 2001, dated 2006)
# Assays:
# [1] = T1 & T2 measurements of contrast agents (proton relaxation times by NMR); assay type: physicochemical; conditions: for T1 / T2: 0.005M in 0.08% physiological saline, 10% heavy water
# Experimental: To these samples, 10% of heavy water was added to obtain a lock signal. As for the blank, 0.08% physiological saline solution was prepared. […] The respective RD values were set sufficiently high in order to eliminate their affects to the test results. […] The respective values of vd and vc as used were those values which were sufficient for parameter-fitting.
# [2] = Stability test for contrast agents in physiological saline (UV-spectrum, separation of metal ions); assay type: physicochemical; conditions: 0.01M in 0.08% physiological saline, 50° C., 24 hours
# [3] = Comparative contrast imaging (spin-echo MRI) in mouse after abdominal administration of contrast agents; assay type: in vivo; conditions: 0.01M at 0.2 ml/10 g, scanned 40 minutes after administration, Set 1 and Set 2
# Experimental: As for the samples for obtaining magnetic resonance imaging, the appropriate amounts of Gd-DTPA (a commercial contrast agent, Magnevist manufactured by Schering, Inc.), octa(1,4,7,10-tetraoxaundecyl)Gd-phthalocyanine (hereinafter referred to as GdPC-Fuxl-6) and octa(1,4,7,10-tetraoxaundecyl)Mn-phthalocyanine (hereinafter referred to as MnPC-Fuxl-18) were dissolved in 0.08% saline solution respectively, and the respective samples at concentration of 0.01M were used. This was in reference to the administration of commercial Gd-DTPA in human at 0.5M concentration under the condition of 0.4 ml/kg in 0.2 ml.
# The above contrast agents of 0.01M concentration were administrated to mouse at 0.2 ml/10 g (female ICR, 27˜30 g, n=6). In the experiment, […], which is the maximum value in the acceptable range of the dose of the contrast agent, were injected to more clearly ascertain their effects. As for the blank for comparison purposes, the solution of 0.08% NaCl was administered. After the abdominal administration of the contrast agents, followed by a thirty-minute wait, the anesthetics (solution of a mixture of rompum, ketamin, and distilled water at 1.5:1.5:7) were injected thereto in order to sufficiently penetrate the contrast agents into the abdominal organs (the images of which were to be examined). […]
# [4] = Light absorption test under X-ray irradiation; assay type: physicochemical; conditions: 2.45 mole concentration, X-ray irradiated, compared to Iron and Super-Iron
# Text: The compound of the present invention, GdPC-Fuxl-6, as obtained in Example 1, and the conventional X-ray contrast agents (Iron and Super-Iron) were spread onto the sticks respectively at 2.45 mole concentration, and X-ray was irradiated thereto for comparatively measuring the degree of light absorption.
# [5] = washed out via urination; cited from earlier work
# [6] = Wash-out time / retention time in blood and tissues; conditions: in vivo
# Experimental: The retention time (in blood) of the complex compound of said structural formula (I) according to the present invention is within the clinically effective range. Whereas DTPA-Gd, which is a conventional contrast agent, has a wash-out time of approximately 30 minutes, the compound of said structural formula (I) of the present invention has a wash-out time (from the tissues) of approximately 1 hour and 30 minutes. […] Today, in using MR angiography, which has undergone significant advancement, a pulse sequence is required. However, the contrast agent of the present invention can contrast vessels without such pulse sequence while it is also useful as a diagnostic contrast agent for intravenous administration.
Compound,T1 (degree of relaxation) ([1]; 80 MHz NMR),T2 (degree of relaxation) ([1]; 80 MHz NMR),T1 ([1]; 80 MHz NMR),T2 ([1]; 80 MHz NMR),T1 ([1]; 300 MHz NMR),T2 ([1]; 300 MHz NMR),stability (no separation of Gd and Mn ions) [2],contrast effects in T1 intensified images [3],degree of light absorption [4],half-life period [5],wash-out time [6]
"octa(1,4,7,10-tetraoxaundecyl)Gd-phthalocyanine [GdPC-Fuxl-6]",24.3 ms,17.4 ms,0.0243 s,0.0174 s,0.0488 s,0.0234 s,stabilized for 24 hours,good contrast effects,superior characteristics with respect to light absorption,,
"O=C([O-])CN(CCN(CC(=O)[O-])CC(=O)[O-])CCN(CC(=O)[O-])CC(=O)[O-].[Gd+3] [Gd-DTPA, complex of diethylenetriaminepentaactic acid (DTPA) and gadolinium (III), reference compound]",,,0.0484 s,0.0441 s,0.0370 s,0.261 s,,,,about 14 minutes,approximately 30 minutes
"octa(1,4,7,10-tetraoxaundecyl)Mn-phthalocyanine [MnPC-Fuxl-18]",191 ms,33.5 ms,0.191 s,0.0335 s,0.317 s,0.0207 s,stabilized for 24 hours,good contrast effects,,,
